Test results as given in patent US20040143012A1, “Method for stabilising particle size distribution of powder active principle dispersed in a liquid and uses thereof” (priority 2000, published 2004).
Several values for one entry are separate records, joined by “and”; a condition that tells them apart may be missing. Equal entries are not always repeated. Where two headings read alike, the source gives them in different places.

How the values were obtained:
[1] = oral, cited from earlier work
[2] = isotretinoin powder, supplier's statement; cited from earlier work
[3] = Particle size analysis of isotretinoin powder by laser scattering granulometer, before and after dispersion in liquid media; assay type: physicochemical
Method: The ability of glycol ethers to stabilize the particle size of an active principle was established by means of studies aimed at comparing the particle size of an isotretinoin powder supposed to have, according to its supplier, a median of 20 μm, before and after dispersion in 5 different liquid media consisting, respectively, of:
The particle size of the isotretinoin powder before dispersion in the liquid media, ie in dry form, was analyzed on samples of 2 g of powder (the vehicle in this case being compressed air), whereas its particle size after dispersion in the various liquid media was analyzed on samples of 20 ml containing 2% (w/v) of this powder, except in the case of the oily mixture, in which the content of isotretinoin powder in the samples was 6.5% (w/v).
All the particle size analyses were carried out using a Mastersizer Banc Long laser scattering granulometer (Malvern Instruments Ltd company) and an MS1 sampler from the same company.

Structure (SMILES) | bioavailability ([1]; gel capsules of 10 and 25 mg, on average) [%] | Median particle size according to supplier [2] [μm] | bioavailability ([1]; soft capsules (Roaccutane), suspension in oily vehicle) | Median of the particle size ([3]; after dispersion in Labrafac PG (propylene glycol dicaprylocaprate), 2% (w/v)) [μm] | Median of the particle size ([3]; after dispersion in Labrasol (caprylocapric macrogolglycerides), 2% (w/v)) [μm] | Median of the particle size ([3]; after dispersion in Transcutol (diethylene glycol monoethyl ether, DGME), 2% (w/v)) [μm] | Median of the particle size ([3]; after dispersion in oily mixture of the Roaccutane type (yellow wax, soybean oils, partially hydrogenated plant oil, medium-chain triglyceride), 6.5% (w/v)) [μm] | Median of the particle size ([3]; isotretinoin powder in dry form, before dispersion (2 g samples, compressed air))
COc1cc(C)c(/C=C/C(C)=C/C=C/C(C)=C/C(=O)O)c(C)c1C [acitretin] | 60 | – | – | – | – | – | – | –
CC1=C(/C=C/C(C)=C/C=C/C(C)=C\C(=O)O)C(C)(C)CCC1 [isotretinoin, 13-cis-retinoic acid] | – | 20 | about 25% | 193.15 | 139.77 | 20.86 | 82.92 | 20 μm and 19.49 μm
